In the test the target is T1, human RORγ-LBD (Homo sapiens, UniProt P51449).
T1 construct: made in house; host or cells: E. coli (BL-21)
T1 sequence (P51449 262-518): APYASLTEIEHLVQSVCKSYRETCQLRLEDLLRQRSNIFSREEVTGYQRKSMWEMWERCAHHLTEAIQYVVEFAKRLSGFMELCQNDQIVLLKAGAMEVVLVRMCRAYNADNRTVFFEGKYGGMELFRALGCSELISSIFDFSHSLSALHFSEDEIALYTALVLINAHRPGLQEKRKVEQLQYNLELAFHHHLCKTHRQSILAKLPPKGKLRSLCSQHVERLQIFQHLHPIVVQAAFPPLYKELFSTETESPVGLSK
Put plainly: ROR gamma coactivator peptide recruitment Alphascreen assay (RORγ-LBD binding to GRIP1 coactivator peptide). Type of test: biochemical. The following applies: 5 nM human RORγ-LBD, 30 nM 7-β-hydroxycholesterol, 50 nM biotinylated GRIP1 coactivator peptide, overnight incubation at room temperature; read-out: result (pIC50, RORγ coactivator peptide recruitment Alphascreen assay) (converted). The method, boiled down: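 His/Flag-tagged human RORγ-LBD (aa 262-518, E. coli-expressed, 5 nM) with agonist 7-β-hydroxycholesterol (30 nM) and biotinylated GRIP1 LXXLL peptide (50 nM) in HEPES pH 7.4 buffer, 2.5% DMSO. Compound 1-in-2 dilutions; Alphascreen bead signal read after overnight incubation at room temperature; pIC50 calculated.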
On the technique in general: In Alpha technology, singlet oxygen from a donor bead excites a nearby acceptor bead.
Take `C[C@]1(C(=O)O)CC[C@H](n2ncc(C(=O)N(CC(=O)c3c(Cl)cncc3Cl)CC3CCC3)c2C(F)(F)F)CC1` [Example 734, trans-4-(4-((cyclobutylmethyl)(2-(3,5-dichloro-4-pyridinyl)-2-oxoethyl)carbamoyl)-5-(trifluoromethyl)-1H-pyrazol-1-yl)-1-methylcyclohexanecarboxylic acid]: the IC50 was 10 nM.

Turning to `C[C@]1(C(=O)O)CC[C@H](n2ncc(C(=O)N(CC(=O)c3c(Cl)cncc3Cl)CC3CCCCC3)c2C(F)(F)F)CC1` [Example 735], the IC50 is 2.75 nM.

As for `C[C@H]1C[C@H](n2ncc(C(=O)N(CC(=O)c3c(Cl)cncc3Cl)CC(C)(C)C)c2C(F)(F)F)CC[C@H]1C(=O)O` [Example 738], the IC50 was 13.5 nM.

With `C[C@@H]1C[C@@H](n2ncc(C(=O)N(CC(=O)c3c(Cl)cncc3Cl)CC(C)(C)C)c2C(F)(F)F)CC[C@@H]1C(=O)O` [Example 739], the IC50 was 5.75 nM.

As to `Cc1cc(Cl)c(C(=O)CN(CC(C)(C)C)C(=O)c2cnn([C@H]3CC[C@H](CC(=O)O)CC3)c2C(F)(F)F)c(Cl)n1` [Example 740, (trans-4-(4-((2-(2,4-dichloro-6-methyl-3-pyridinyl)-2-oxoethyl)(2,2-dimethylpropyl)carbamoyl)-5-(trifluoromethyl)-1H-pyrazol-1-yl)cyclohexyl)acetic acid], the IC50 was 14.5 nM.

For the compound `CCC1(CN(CC(=O)c2c(Cl)cncc2Cl)C(=O)c2cnn([C@H]3CC[C@](C)(C(=O)O)CC3)c2C(F)(F)F)CCC1` [Example 742, trans-4-(4-((2-(3,5-dichloro-4-pyridinyl)-2-oxoethyl)((1-ethylcyclobutyl)methyl)carbamoyl)-5-(trifluoromethyl)-1H-pyrazol-1-yl)-1-methylcyclohexanecarboxylic acid], the IC50 is 2.63 nM.

As for `CC1(C)C[C@H]1CN(CC(=O)c1c(Cl)cncc1Cl)C(=O)c1cnn([C@H]2CC[C@](C)(C(=O)O)CC2)c1C(F)(F)F` [Example 743, trans-4-(4-((2-(3,5-dichloro-4-pyridinyl)-2-oxoethyl)(((1S)-2,2-dimethylcyclopropyl)methyl)carbamoyl)-5-(trifluoromethyl)-1H-pyrazol-1-yl)-1-methylcyclohexanecarboxylic acid], the IC50 is 2.24 nM.

In the case of `CCC1(CN(CC(=O)c2c(Cl)cc(C)cc2Cl)C(=O)c2cnn([C@H]3CC[C@](C)(C(=O)O)CC3)c2C(F)(F)F)CCC1` [Example 744, trans-4-(4-((2-(2,6-dichloro-4-methylphenyl)-2-oxoethyl)((1-ethylcyclobutyl)methyl)carbamoyl)-5-(trifluoromethyl)-1H-pyrazol-1-yl)-1-methylcyclohexanecarboxylic acid], the IC50 was 0.589 nM.

For the compound `Cc1cc(Cl)c(C(=O)CN(C[C@@H]2CC2(C)C)C(=O)c2cnn([C@H]3CC[C@](C)(C(=O)O)CC3)c2C(F)(F)F)c(Cl)c1` [Example 745, trans-4-(4-((2-(2,6-dichloro-4-methylphenyl)-2-oxoethyl)(((1R)-2,2-dimethylcyclopropyl)methyl)carbamoyl)-5-(trifluoromethyl)-1H-pyrazol-1-yl)-1-methylcyclohexanecarboxylic acid], the IC50 was 1 nM.

As to `CC(C)[C@@H]1C[C@H](Cc2c(Cl)cncc2Cl)N(C(=O)c2cnn([C@H]3CC[C@](C)(C(=O)O)CC3)c2C(F)(F)F)C1` [Example 746, trans-4-(4-(((2R,4S)-2-((3,5-dichloro-4-pyridinyl)methyl)-4-(2-propanyl)-1-pyrrolidinyl)carbonyl)-5-(trifluoromethyl)-1H-pyrazol-1-yl)-1-methylcyclohexanecarboxylic acid], the IC50 is 32.4 nM.

Regarding `CC(C)[C@H]1C[C@H](Cc2c(Cl)cncc2Cl)N(C(=O)c2cnn([C@H]3CC[C@](C)(C(=O)O)CC3)c2C(F)(F)F)C1` [Example 747, trans-4-(4-(((2R,4R)-2-((3,5-dichloro-4-pyridinyl)methyl)-4-(2-propanyl)-1-pyrrolidinyl)carbonyl)-5-(trifluoromethyl)-1H-pyrazol-1-yl)-1-methylcyclohexanecarboxylic acid], the IC50 is 3.98 nM.

On to `C[C@]1(C(=O)O)CC[C@H](n2ncc(C(=O)N(CC(=O)c3c(Cl)cncc3Cl)[C@H]3CCC34CCC4)c2C(F)(F)F)CC1` [Example 748, trans-4-(4-((2-(3,5-dichloro-4-pyridinyl)-2-oxoethyl)((1S)-spiro[3.3]hept-1-yl)carbamoyl)-5-(trifluoromethyl)-1H-pyrazol-1-yl)-1-methylcyclohexanecarboxylic acid], for which the IC50 was 3.39 nM.

On to `C[C@]1(C(=O)O)CC[C@H](n2ncc(C(=O)N(CC(=O)c3c(Cl)cncc3Cl)[C@@H]3CCC34CCC4)c2C(F)(F)F)CC1` [Example 749, trans-4-(4-((2-(3,5-dichloro-4-pyridinyl)-2-oxoethyl)((1R)-spiro[3.3]hept-1-yl)carbamoyl)-5-(trifluoromethyl)-1H-pyrazol-1-yl)-1-methylcyclohexanecarboxylic acid], for which the IC50 is 60.3 nM.

Turning to `Cc1cc(Cl)c(C(=O)CN(C(=O)c2cnn([C@H]3CC[C@H](CC(=O)O)CC3)c2C(F)(F)F)[C@H]2C[C@@H]3[C@H](C2)C3(C)C)c(Cl)c1` [Example 750, (trans-4-(4-((2-(2,6-dichloro-4-methylphenyl)-2-oxoethyl)((1R,3r,5S)-6,6-dimethylbicyclo[3.1.0]hex-3-yl)carbamoyl)-5-(trifluoromethyl)-1H-pyrazol-1-yl)cyclohexyl)acetic acid], the IC50 was 1.58 nM.

For `Cc1cc(Cl)c(C(=O)CN(CC2(F)CCCC2)C(=O)c2cnn([C@H]3CC[C@](C)(C(=O)O)CC3)c2C(F)(F)F)c(Cl)n1` [Example 751, trans-4-(4-((2-(2,4-dichloro-6-methyl-3-pyridinyl)-2-oxoethyl)((1-fluorocyclopentyl)methyl)carbamoyl)-5-(trifluoromethyl)-1H-pyrazol-1-yl)-1-methylcyclohexanecarboxylic acid], the IC50 was 9.33 nM.

For `CC(C)CCN(CC(=O)c1c(Cl)cccc1Cl)C(=O)c1cnn([C@H]2CC[C@](C)(C(=O)O)CC2)c1C(F)(F)F` [Example 752, trans-4-(4-((2-(2,6-dichlorophenyl)-2-oxoethyl)(3-methylbutyl)carbamoyl)-5-(trifluoromethyl)-1H-pyrazol-1-yl)-1-methylcyclohexanecarboxylic acid], the IC50 is 4.79 nM.

For the compound `COc1ncc(Cl)c(C(=O)CN(CC(C)(C)C)C(=O)c2cnn([C@H]3CC[C@](C)(C(=O)O)CC3)c2C(F)(F)F)c1Cl` [Example 753, trans-4-(4-((2-(3,5-dichloro-2-methoxy-4-pyridinyl)-2-oxoethyl)(2,2-dimethylpropyl)carbamoyl)-5-(trifluoromethyl)-1H-pyrazol-1-yl)-1-methylcyclohexanecarboxylic acid], the IC50 was 25.1 nM.

Regarding `O=C(O)C[C@H]1CC[C@H](n2ncc(C(=O)N(CC(=O)c3c(Cl)cncc3Cl)Cc3cc(F)cc(F)c3)c2C(F)(F)F)CC1` [Example 755, (trans-4-(4-((2-(3,5-dichloro-4-pyridinyl)-2-oxoethyl)(3,5-difluorobenzyl)carbamoyl)-5-(trifluoromethyl)-1H-pyrazol-1-yl)cyclohexyl)acetic acid], the IC50 was 2.34 nM.

As to `C[C@@H]1C[C@@H](n2ncc(C(=O)N(CC(=O)c3c(Cl)cncc3Cl)CC3CC(C)(C)C3)c2C(F)(F)F)CC[C@@H]1C(=O)O` [Example 756, (1S,2R,4S)-4-(4-((2-(3,5-dichloro-4-pyridinyl)-2-oxoethyl)((3,3-dimethylcyclobutyl)methyl)carbamoyl)-5-(trifluoromethyl)-1H-pyrazol-1-yl)-2-methylcyclohexanecarboxylic acid], the IC50 is 2.57 nM.

For `Cc1cc(C)c(C(=O)CN(C(=O)c2cnn([C@H]3CC[C@](C)(C(=O)O)CC3)c2C(F)(F)F)[C@H]2C[C@@H]3[C@H](C2)C3(C)C)c(Cl)n1` [Example 757, trans-4-(4-((2-(2-chloro-4,6-dimethyl-3-pyridinyl)-2-oxoethyl)((1R,3r,5S)-6,6-dimethylbicyclo[3.1.0]hex-3-yl)carbamoyl)-5-(trifluoromethyl)-1H-pyrazol-1-yl)-1-methylcyclohexanecarboxylic acid], the IC50 is 7.94 nM.

Consider `Cc1ncc(Cl)c(C(=O)CN(C(=O)c2cnn([C@H]3CC[C@](C)(C(=O)O)CC3)c2C(F)(F)F)[C@H]2C[C@@H]3[C@H](C2)C3(C)C)c1Cl` [Example 758, trans-4-(4-((2-(3,5-dichloro-2-methyl-3-pyridinyl)-2-oxoethyl)((1R,3r,5S)-6,6-dimethylbicyclo[3.1.0]hex-3-yl)carbamoyl)-5-(trifluoromethyl)-1H-pyrazol-1-yl)-1-methylcyclohexanecarboxylic acid], for which the IC50 was 3.55 nM.

As to `CC1(CN(CC(=O)c2c(Cl)cccc2Cl)C(=O)c2cnn([C@H]3CC[C@](C)(C(=O)O)CC3)c2C(F)(F)F)CC1` [Example 759, trans-4-(4-((2-(2,6-dichlorophenyl)-2-oxoethyl)((1-methylcyclopropyl)methyl)carbamoyl)-5-(trifluoromethyl)-1H-pyrazol-1-yl)-1-methylcyclohexanecarboxylic acid], the IC50 was 3.72 nM.

In the case of `CC1(CN(CC(=O)c2c(Cl)cccc2Cl)C(=O)c2cnn([C@H]3CC[C@](C)(C(=O)O)CC3)c2C(F)(F)F)CCC1` [Example 760, trans-4-(4-((2-(2,6-dichlorophenyl)-2-oxoethyl)((1-methylcyclobutyl)methyl)carbamoyl)-5-(trifluoromethyl)-1H-pyrazol-1-yl)-1-methylcyclohexanecarboxylic acid], the IC50 was 2.4 nM.
